PMC5703966, “Systemic clearance and brain distribution of carbazole-based cyanine compounds as Alzheimer’s disease drug candidates” (Scientific Reports, 2017)
“And” between values parts separate entries of the source, which are not always exact repeats. Identical values can stand only once. Like-named read-outs stand apart in the source and are kept apart here.

Assays:
[1] = Blood cell partitioning (blood to plasma ratio); format: in vitro ADME; conditions: fresh whole blood, 37 °C
Description: The blood to plasma ratio was determined using the method shown in supplemental information (Supplemental Methods). […] The blood cell partitioning was calculated as follows. […] Plasma, liver microsomes and hepatocyte binding by RED device The stability of the compounds in plasma, liver microsomes and hepatocyte were studied to ensure the reliability of the binding data. Hepatocyte was deactivated by leaving them on a bench for 2 days and going through a freeze thaw cycle thereafter.

[2] = Liver microsomes stability with NADPH; format: in vitro ADME; conditions: human
mouse hepatocytes = test: Hepatocyte stability; format: in vitro ADME; conditions: well-stirred model
[3] = Systemic clearance and pharmacokinetics after i.v. dose in C57BL/6 mice aging 2 months; format: in vivo, mouse; conditions: male, iv; for clearance / AUC(0-inf) / half-life / MRT inf / Vd: C57BL/6, mouse, plasma; for clearance: read-out: Cl p (converted); for MRT inf: read-out: MRT 0-∞; for Vd: read-out: Vd ss
Description: (§1) Male C57BL/6 and Bile duct-cannulated (BDC) mice (2 months, weighting: 25–30 g) obtained from Charles River, Inc. (Raleigh, NC) were used to study systemic clearance mechanism, in line with in vitro commercial samples from adolescent animals. Mice were fasted overnight and throughout the duration of the study ([…]), whereas access to water was provided ad libitum. SLOH and SLM were administered i.v. in PBS containing 5% DMSO via the tail vein (n = 5) at different dosages in a dosing volume of 5 mL/kg. Serial blood samples were collected before dosing and at 0.083, 0.167, 0.25, 0.5, 1, 2, 4, 8, 12 and 24 hours after dosing. Urine samples (0–12 and 12–24 hours; pooled 0–24 hours) were also collected after i.v. administration (1 mg/kg). Bile samples were collected at intervals of 0–4, 4–8 and 8–24 hours (pooled 0–24 hours) after dosing (1 mg/kg) to BDC mice.
(§2) Parameters in animals were determined using non-compartmental analysis. […] Systemic Cl p was calculated as the i.v. dose divided by AUC0−∞ ^iv. The terminal rate constant (K el) was calculated by a linear regression of the log-linear concentration-time curve, and the terminal elimination t 1/2 was calculated as 0.693 divided by K el. Mean residence time from t = 0 to infinity (MRT 0−∞) was calculated as AUMC 0−∞ divided by AUC 0−∞. Apparent steady-state distribution volume (Vd ss) was determined as Cl p multiplied by MRT 0−∞. […] The Cl bile was derived as the amount of (in milligrams) of SLM or SLOH in the bile over the 24-hour interval postdose/AUC0-24h. The influx clearance into brain (K in) was calculated by using the amount of drug in the brain (homogenate) at time t (A, brain (t)) (corrected for the amount of drug remaining in the cerebral vasculature) divided by plasma exposure up to this time point (AUC, plasma (0 − t)). The C u,brain was calculated by A brain (homogenate, ng/g brain) divided by V u,brain (mL/g brain). The unbound ISF to plasma ratio (K puu,brain) was calculated by unbound AUC 0−t of ISF (ng/mL × min) divided by unbound AUC 0–t (ng/mL × min) of plasma.

C57BL/6 mice = test: as above; format: in vivo, mouse
Description: as §1, §2

[4] = Systemic clearance and brain distribution in WT and 3 × Tg-AD mice (8 months); format: in vivo, mouse; conditions: mouse; for Kp: brain interstitial fluid (unbound) versus plasma (unbound), read-out: K puu,brain; for clearance / Vd / half-life / MRT inf: plasma; for Vd: read-out: Vdss; for MRT inf: read-out: MRT 0−∞
Description: (§3) The transgenic (Tg) AD mice (B6; 129-Psen1 ^tm1Mpm Tg (APPSwe, tauP301L) 1Lfa/Mmjax) and the corresponding wild-type (WT) (B6129SF2/J) mice was obtained from the Jackson Laboratory (Bar Harbor, Maine, USA), and maintained by the Animal Facility of Faculty of Health Sciences in University of Macau. Either 27 WT or AD mice (8 months) were randomly separated into 9 groups with 3 mice at each time point. Blood and brain were collected at time points 0.083, 0.167, 0.25, 0.5, 1, 2, 4, 8 and 16 hours after i.v. dosing (1 mg/kg). Mice were euthanized by isoflurane followed by cervical dislocation. All the plasma, urine, bile and brain samples were stored at −70 °C for subsequent analysis. The analytical methods for systemic and brain PK parameters were shown in supplemental information (Supplemental Methods).
as §2

WT and 3 × Tg-AD mice = test: as above; format: in vivo, mouse; conditions: for K in: 1 mg/kg i.v.
Description: as §3, §2

[5] = B6129SF2/J (wild-type), iv, WT mice 8 months, 1 mg/kg i.v.
[6] = iv, AD mice 8 months, 1 mg/kg i.v.

With `COCCOCCn1c2ccccc2c2cc(/C=C/c3cc[n+](C)c4ccccc34)ccc21.[I-]` [SLM, (E)-4-(2-(9-(2-(2-methoxyethoxy)ethyl)-9H-carbazol-3-yl)-vinyl)-1-methyl-quinolin-1-iumiodide] the blood plasma ratio at 1 h, 1 μM ([1]; human) was about 0.82, the blood plasma ratio at 1 h, 1 μM ([1]; mouse) was about 1.4 and the CLint scaled at 1 μM ([2]; liver microsomes, pH 7.4, read-out: Microsomes Cl int,scaled) was 140 ± 19 mL/min/kg. The “Microsomes scaled Cl hep” value ([2]; well-stirred model) was 1.67 ± 0.167 mL/min/kg, the “Microsomes Cl u, int,app” value ([2]; Cl int,app / f u,mic) was 1.50 ± 0.200^$ mL/min/mg and the microsomal CLint at 1 μM ([2]; liver microsomes, pH 7.4, NADPH, 1 μM, read-out: Microsomes Cl int,app) was 110 ± 20 µL/min/mg. For the same molecule, the “Hepatocyte scaled Cl hep” value (mouse hepatocytes) was 8.67 ± 1.67 mL/min/kg, the clearance ([3]; 0.2 mg/kg, i.v. 0.2 mg/kg) was 14.8 mL/min/kg and the clearance ([3]; 0.6 mg/kg, i.v. 0.6 mg/kg) was 15.5 mL/min/kg. The clearance ([3]; 1 mg/kg, C57BL/6 mice 2 months, i.v. 1 mg/kg) was about 11.8 mL/min/kg, the clearance ([3]; 2 mg/kg, i.v. 2.0 mg/kg) was 12.5 mL/min/kg and the clearance ([3]; 4 mg/kg, i.v. 4.0 mg/kg) was 13.8 mL/min/kg. It also gave an AUC(0-inf) ([3]; i.v. 0.2 mg/kg) of 240 ± 74 ng·h/mL, a half-life ([3]; i.v. 0.2 mg/kg) of 6.4 ± 4 h and an MRT inf ([3]; i.v. 0.2 mg/kg) of 3.5 ± 0.95 h. It also gave a Vd ([3]; i.v. 0.2 mg/kg) of 1.5 ± 0.63 L/kg, an AUC(0-inf) ([3]; i.v. 0.6 mg/kg) of 580 ± 170 ng·h/mL and a half-life ([3]; i.v. 0.6 mg/kg) of 6 ± 1.1 h. It also gave an MRT inf ([3]; i.v. 0.6 mg/kg) of 3.7 ± 0.86 h, a Vd ([3]; i.v. 0.6 mg/kg) of 2.1 ± 0.54 L/kg and a half-life ([3]; i.v. 1.0 mg/kg) of 9.3 ± 3.3 h. It also gave an MRT inf ([3]; i.v. 1.0 mg/kg) of 3.2 ± 1 h, a Vd ([3]; i.v. 1.0 mg/kg) of 2.2 ± 0.61 L/kg and a half-life ([3]; i.v. 2.0 mg/kg) of 7.1 ± 0.55 h. It also gave an MRT inf ([3]; i.v. 2.0 mg/kg) of 2.5 ± 0.18 h, a Vd ([3]; i.v. 2.0 mg/kg) of 1.7 ± 0.55 L/kg and a half-life ([3]; i.v. 4.0 mg/kg) of 6.5 ± 2 h. It also gave an MRT inf ([3]; i.v. 4.0 mg/kg) of 3 ± 0.52 h, a Vd ([3]; i.v. 4.0 mg/kg) of 2.1 ± 0.2 L/kg and a CL renal ([3]; mouse, urine and plasma, C57BL/6 mice, i.v. 1 mg/kg, urine 0–24 h, read-out: Total Cl renal (converted)) of 0.667 mL/min/kg. The “Cl u, renal/GFR Ratio” value (C57BL/6 mice; GFR in mice 0.6 L/h per Kg) was 1.90 ± 0.390, the “dose dependence of kinetics” value (C57BL/6 mice; i.v. 0.2 mg/kg to 4 mg/kg in mice) was “linearity kinetics dependent on dose” and the “biliary clearance share of plasma clearance” value (C57BL/6 mice; mice) was 38.0%. For the same molecule, the “remaining / hepatic clearance share of plasma clearance (Clhep/Clp)” value (C57BL/6 mice; mice) was 58.0%, the “renal clearance share of plasma clearance” value (C57BL/6 mice; mice) was 4.50% and the “Liver first pass elimination” value (C57BL/6 mice; mouse, in vivo) was 16.0 % liver blood flow. For the same molecule, the “Cl u, renal” value (C57BL/6 mice; total Cl renal normalised with unbound free fraction in blood) was 1.10 L/h per Kg and 1.10 ± 0.230 L/h per Kg, the Kp ([4]; 3×Tg-AD (B6;129-Psen1tm1Mpm Tg(APPSwe,tauP301L)1Lfa/Mmjax), iv, 1 mg/kg, AD mice 8 months, 1 mg/kg i.v.) was 11 and the clearance ([4]; 3×Tg-AD (B6;129-Psen1tm1Mpm Tg(APPSwe,tauP301L)1Lfa/Mmjax), iv, AD mice 8 months, 1 mg/kg i.v., read-out: Cl p (converted)) was 13.2 mL/min/kg. For the same molecule, the Vd ([4]; 3×Tg-AD (B6;129-Psen1tm1Mpm Tg(APPSwe,tauP301L)1Lfa/Mmjax), iv, AD mice 8 months, 1 mg/kg i.v.) was 1.3 ± 0.32 L/kg, the clearance ([4]; B6129SF2/J (WT) and 3×Tg-AD, intravenous, 1 mg/kg, WT and AD mice (8 months), no significant difference, read-out: plasma clearance (converted)) was about 11.7 mL/min/kg and the Kp ([4]; B6129SF2/J (wild-type), iv, 1 mg/kg, WT mice 8 months, 1 mg/kg i.v.) was 2.5 ± 0.44. It also gave a half-life [4, 5] of 6 ± 1 h, a clearance ([4]; B6129SF2/J (wild-type), iv, WT mice 8 months, 1 mg/kg i.v., read-out: Cl p (converted)) of 11.3 mL/min/kg and an MRT inf [4, 5] of 1.5 ± 0.18 h. The Vd [4, 5] was 1.3 ± 0.58 L/kg, the half-life [4, 6] was 3.5 ± 1 h and the MRT inf [4, 6] was 1.7 ± 0.55 h. For the same molecule, the “K in” value (WT and 3 × Tg-AD mice; AD mice 8 months) was 4.10 ± 1.10 μL/min per g brain, the “K in” value (WT and 3 × Tg-AD mice; WT mice 8 months) was 1.70 ± 0.630 μL/min per g brain and the “K puu,brain in AD mice relative to WT mice” value (WT and 3 × Tg-AD mice; higher in AD mice) was 4 fold.
